System: HiNGT, EcNGT, ApNGT and ApNGT^Q469A
Format: biochemical

WGNWS
differential sequence preference in regard to N-glycosylation: which NGT modifies the sequence: for EcNGT but not for HiNGT

Source: US11898187B2 (priority 2017, dated 2024)
